We go through 13 molecules from PubChem BioAssay (NCI).

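A five-concentration, 48-hour dose response in 96-well plates underlies each endpoint, interpolated linearly between surrounding concentrations. GI50 marks 50% less growth. TGI: concentration producing complete growth inhibition.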

Among the test systems are A498 renal; ACHN renal; HS 578T breast; MDA-MB-435; NCI/ADR-RES ovarian; SF-268 CNS; T-47D breast; SK-MEL-28 melanoma.
Holding throughout (assay): NCI anticancer screen, dose series, 48 h

Turning to `COc1ncc2cc1NS(=O)(=O)c1cccc(c1)C(=O)NCC1=CC=C(S1)c1ncnc3c1SC2=C3C`, the GI50 in the experiment with A498 renal is 0.188 µM; in the experiment on ACHN renal, 0.592 µM; in the experiment on HS 578T breast it was 0.0247 µM; in the experiment with MDA-MB-435 it was 0.434 µM; in the experiment with NCI/ADR-RES ovarian, 0.542 µM; in the experiment with SF-268 CNS, 0.37 µM. Further, the GI50 in the experiment with T-47D breast is 0.0946 µM. Besides, the TGI turned out to be 0.548 µM in the experiment on A498 renal; 8.33 µM in the experiment with ACHN renal; 0.355 µM with HS 578T breast; 3.43 µM in the experiment on MDA-MB-435; 9.63 µM in the experiment with NCI/ADR-RES ovarian; 11.8 µM in the experiment on SF-268 CNS. Besides, the TGI in the experiment on T-47D breast is 4.04 µM.
In the case of `CN(C)CCS(=O)(=O)Nc1cc(-c2ccc3ncnc(Nc4ccc(F)c(Cl)c4)c3c2)cnc1Cl`, the GI50 in the experiment with A498 renal was 0.336 µM; in the experiment with ACHN renal it was 0.392 µM; in the experiment on HS 578T breast, 0.32 µM; in the experiment with MDA-MB-435, 0.713 µM; with NCI/ADR-RES ovarian, 3.32 µM; in the experiment on SF-268 CNS, 0.549 µM. In addition, in the experiment on T-47D breast, the GI50 is 0.0941 µM. The TGI with A498 renal is 1.17 µM; with ACHN renal, greater than 100 µM; with HS 578T breast, 10.8 µM; with MDA-MB-435, 3.04 µM; in the experiment with NCI/ADR-RES ovarian it was greater than 100 µM; in the experiment with SF-268 CNS, greater than 100 µM. Also, the TGI in the experiment on T-47D breast came out at 0.635 µM.
In the case of `O=S(=O)(Cc1ccccc1)SCc1ccccc1`, the TGI in the experiment with A498 renal is 73.6 µM; in the experiment with ACHN renal it was greater than 100 µM; in the experiment with SF-268 CNS, greater than 100 µM; in the experiment on SK-MEL-28 melanoma, 97.2 µM.
Take `O=C(Nc1nc2c(s1)CCc1c-2c(Br)n(Cc2ccccc2)c1Br)c1ccccc1`: the GI50 with A498 renal is 4.7 µM; in the experiment with ACHN renal, 1.88 µM; with MDA-MB-435, 2.97 µM; with NCI/ADR-RES ovarian it was 21 µM; in the experiment on SF-268 CNS, 6.03 µM; in the experiment with SK-MEL-28 melanoma, 4.34 µM. For the same molecule, the GI50 in the experiment with T-47D breast was 1.4 µM. The TGI in the experiment on A498 renal is 28.9 µM; with ACHN renal, 7.35 µM; in the experiment with MDA-MB-435, 35.9 µM; in the experiment with NCI/ADR-RES ovarian it was greater than 100 µM; in the experiment with SF-268 CNS it was greater than 100 µM; in the experiment with SK-MEL-28 melanoma it was 70.7 µM. In addition, the TGI in the experiment on T-47D breast worked out at 19.7 µM.
For `O=C(CN(/C=C/C(=O)C(F)(F)F)c1ccccc1)c1ccc(F)cc1`, the GI50 was 22.3 µM with ACHN renal; 2.57 µM in the experiment on HS 578T breast; 27.1 µM with MDA-MB-435; 23.6 µM in the experiment on NCI/ADR-RES ovarian; 23.1 µM in the experiment on SF-268 CNS; 54.8 µM in the experiment on SK-MEL-28 melanoma. Moreover, the GI50 in the experiment on T-47D breast was 35.3 µM. The TGI with ACHN renal was 69.4 µM; with HS 578T breast, 8.33 µM; in the experiment on MDA-MB-435, 72.1 µM; in the experiment with NCI/ADR-RES ovarian, 66 µM; in the experiment on SF-268 CNS, 64.5 µM; in the experiment with SK-MEL-28 melanoma it was greater than 100 µM. Moreover, the TGI with T-47D breast was greater than 100 µM.
Consider `CC(C)c1cc(C(C)C)c(Cl)c(Cl)c1O` (tested in a mixture with another compound), for which the TGI in the experiment with ACHN renal is 57.6 µM; with HS 578T breast, 38.5 µM; in the experiment with MDA-MB-435 it was 46.1 µM; in the experiment on NCI/ADR-RES ovarian it was greater than 100 µM; in the experiment on SF-268 CNS it was 42.4 µM; in the experiment with SK-MEL-28 melanoma it was 42.4 µM.
Consider `CN1CC[C@]23c4c5ccc(O)c4OC2c2[nH]ncc2C[C@H]3[C@H]1C5` (some centres undefined), for which the TGI with ACHN renal, in the experiment with HS 578T breast, with MDA-MB-435, in the experiment on NCI/ADR-RES ovarian, in the experiment with SF-268 CNS and with SK-MEL-28 melanoma was greater than 100 µM throughout. In the experiment on T-47D breast, this molecule showed a TGI greater than 100 µM.
`CN1CCOCCOCCOc2ccccc2NC(=O)c2nc(cnc2N)-c2ccc(cc2)S1(=O)=O`: the GI50 was 0.0241 µM with A498 renal; 0.0504 µM with ACHN renal; 3.56 µM in the experiment on HS 578T breast; 11.1 µM in the experiment with SF-268 CNS; greater than 100 µM in the experiment with T-47D breast. Further, the TGI in the experiment with A498 renal is 3.93 µM; in the experiment on ACHN renal, greater than 100 µM; with HS 578T breast, greater than 100 µM; in the experiment on SF-268 CNS, greater than 100 µM; with T-47D breast, greater than 100 µM.
`CCN(CC)C(=O)CCCCCn1c2ccccc2c2c3c(c4c5ccccc5[nH]c4c21)C(=O)N(O)C3=O`: the GI50 in the experiment with A498 renal was 2.86 µM; with HS 578T breast, 5.05 µM; in the experiment on MDA-MB-435 it was 4.04 µM; with NCI/ADR-RES ovarian, 3.4 µM; in the experiment with SF-268 CNS it was 3.97 µM; with SK-MEL-28 melanoma it was 5.38 µM. Further, the GI50 with T-47D breast is 4.12 µM. Besides, the TGI is 20.3 µM in the experiment on A498 renal; greater than 100 µM in the experiment on HS 578T breast; 40 µM in the experiment with MDA-MB-435; greater than 100 µM in the experiment on NCI/ADR-RES ovarian; greater than 100 µM with SF-268 CNS; greater than 100 µM in the experiment on SK-MEL-28 melanoma. This molecule also returned a TGI with T-47D breast of 52.1 µM.
On to `CCOC(=O)n1c2ccccc2c(=O)n1CCO`, for which the TGI in the experiment on A498 renal, in the experiment on ACHN renal, in the experiment on HS 578T breast, in the experiment on NCI/ADR-RES ovarian, with SF-268 CNS and with SK-MEL-28 melanoma was greater than 100 µM each time. In the experiment with T-47D breast, the TGI is greater than 100 µM.
For the molecule `O=C(Nc1ccc(Br)cc1)Nc1cccc(Br)c1`, the GI50 with A498 renal is 4.81 µM; in the experiment with HS 578T breast, greater than 100 µM; with SF-268 CNS, greater than 100 µM; in the experiment on SK-MEL-28 melanoma, 4.77 µM. The TGI in the experiment with A498 renal, in the experiment on HS 578T breast, with SF-268 CNS and with SK-MEL-28 melanoma was greater than 100 µM each time.
`CCN(CC)CCCNc1c2ccc(Cl)cc2nc2ccc(OC)cc12`: the GI50 is 1.51 µM with A498 renal, 2.05 µM in the experiment with HS 578T breast, 0.0614 µM in the experiment on MDA-MB-435 and 0.0618 µM in the experiment with SF-268 CNS. For the same molecule, the TGI with A498 renal was found to be 2.86 µM; in the experiment on HS 578T breast, 5.54 µM; with MDA-MB-435, 2.04 µM; in the experiment with SF-268 CNS, 3.53 µM.
For `COC(=O)c1ccc2c(c1)C(=O)c1c-2n(CCCCl)c(=O)c2cc(OC)c(OC)cc12`, the GI50 in the experiment on ACHN renal, with HS 578T breast, in the experiment on MDA-MB-435, in the experiment on NCI/ADR-RES ovarian, in the experiment on SF-268 CNS and in the experiment on SK-MEL-28 melanoma was greater than 100 µM in each case. For the same molecule, in the experiment with T-47D breast, the GI50 is greater than 100 µM. The TGI in the experiment with ACHN renal, in the experiment on HS 578T breast, with MDA-MB-435, with NCI/ADR-RES ovarian, in the experiment with SF-268 CNS and in the experiment with SK-MEL-28 melanoma was greater than 100 µM throughout. For the same molecule, the TGI in the experiment on T-47D breast is greater than 100 µM.
